Results published in US9931315B2, “Method of selectively inhibiting Ras-mediated tumor growth in humans” (ADT PHARMACEUTICALS, INC., priority 2014, dated 2018).
Where two headings read alike, the source gives them in different places.

What was measured:
Type in all cases: cell-based, human
[1] = tested on: HCT-116 colon tumor cells; assay: Cell growth inhibition (CellTiter-Glo), HCT-116 colon tumor cells expressing mutant Ras; conditions: ratio IC50 HT-29 (WT Ras) / IC50 HCT-116 (mutant Ras), 5000 cells/well, 96-well plates
Method: This example illustrates cell growth assays employed in the present invention. […] Normal rat kidney (NRK) and Ki-Ras transformed NRK cells (K-NRK) were obtained from ATCC, and were cultured according to supplier recommendations. CellTiter-Glo ATP cell growth assay reagents were obtained from Promega and used according to the manufacturer's protocol. Inhibitors of EGFR, Raf, and MEK were obtained from Selleck Chemicals. Cells were plated at a density of 5,000 cells per well in 96-well microplates or 1,250 cells per well in 384-well plates, and allowed to attach for at least 4 h. Test compounds were dissolved in dimethyl sulfoxide (DMSO), and this working stock was further diluted in growth medium for addition to cell cultures. Serial dilutions of the test compound were prepared in growth medium containing an equal amount of DMSO not exceeding 0.2% final concentration. Each compound concentration was tested in at least 3 separate samples per cell line. At the end of a 3-day treatment period, growth inhibition was analyzed using a bioluminescent assay of ATP concentration (Promega CellTiter-Glo) according to the manufacturer's protocol. Resulting luminescence was measured using the luminescence cartridge of the Molecular Devices Spectramax Paradigm microplate reader. Relative growth inhibition for each sample was determined by comparison with the values obtained for vehicle treated control samples. […] This example illustrates use of well-established human colon tumor cell lines with widely divergent Ras activation status to determine selectivity values for exemplary compounds of the present invention. […] Cells were plated at 5000 cells/well in 96-well plates, and viable cell numbers were measured using the Cell Titer Glo ATP luminescence assay (Promega). […] Cells were seeded in 384-well plates and allowed to attach. Ten-fold serial dilutions of compounds were tested. Each compound concentration was tested in at least 3 separate samples per cell line.

A549 lung cancer cells = assay: Cell growth inhibition (CellTiter-Glo ATP assay), A549 cells with mutant K-Ras; conditions: for IC50: Homo sapiens, A549, 72 h, growth inhibition, three days treatment, K-Ras mutant lung cancer cells, read-out: A549 (Ras-activated) IC50; for Selectivity HT-29/A549: ratio IC50 HT-29 (WT Ras) / IC50 A549 (Ras-activated)
Method: This example illustrates cell growth assays employed in the present invention. Cells used in such assays included A-549, HT-29, MDA-MB-231, Colo-205, Caco2, HCT-116, SW-480, and DLD-1 human cancer cells obtained from the American Type Culture Collection (ATCC).
(§1) Human tumor cells were cultured using standard methods in RPMI-1640 growth medium supplemented with 5% fetal bovine serum (FBS). Normal rat kidney (NRK) and Ki-Ras transformed NRK cells (K-NRK) were obtained from ATCC, and were cultured according to supplier recommendations. CellTiter-Glo ATP cell growth assay reagents were obtained from Promega and used according to the manufacturer's protocol. Inhibitors of EGFR, Raf, and MEK were obtained from Selleck Chemicals. Cells were plated at a density of 5,000 cells per well in 96-well microplates or 1,250 cells per well in 384-well plates, and allowed to attach for at least 4 h. Test compounds were dissolved in dimethyl sulfoxide (DMSO), and this working stock was further diluted in growth medium for addition to cell cultures. Serial dilutions of the test compound were prepared in growth medium containing an equal amount of DMSO not exceeding 0.2% final concentration. Each compound concentration was tested in at least 3 separate samples per cell line. At the end of a 3-day treatment period, growth inhibition was analyzed using a bioluminescent assay of ATP concentration (Promega CellTiter-Glo) according to the manufacturer's protocol. Resulting luminescence was measured using the luminescence cartridge of the Molecular Devices Spectramax Paradigm microplate reader. Relative growth inhibition for each sample was determined by comparison with the values obtained for vehicle treated control samples. Growth inhibition values were plotted with the GraphPad Prism5 software using the 4-parameter logistic fit to obtain IC50 values, which corresponds to the growth inhibitory potency of the compound.
(§2) This example illustrates effects of exemplary compounds of the present invention on cancer cells having activated or mutated Ras compared to wild-type (WT) Ras. […] A549 lung cancer cells, which harbor a mutation in the K-Ras oncogene were treated for three days with the compounds.

HT-29 colon cancer cells = assay: Cell growth inhibition (CellTiter-Glo ATP assay), HT-29 cells with wild-type Ras; conditions: Homo sapiens, HT-29
Method: (§3) This example illustrates cell growth assays employed in the present invention.
as §1, with “Normal” for “Human tumor cells were cultured using standard methods in RPMI-1640 growth medium supplemented with 5% fetal bovine serum (FBS). Normal”
as §2
(§4) Cells were seeded in 384-well plates and allowed to attach. Ten-fold serial dilutions of compounds were tested. Each compound concentration was tested in at least 3 separate samples per cell line.

SW-480 cells = assay: Cell growth inhibition (CellTiter-Glo), SW-480 colorectal cells with activated Ras; conditions: for IC50: Homo sapiens, SW480, growth inhibition, 384-well plates, Table 3, read-out: SW-480 (Ras Activated IC50); for Selectivity Caco-2/SW-480: ratio IC50 Caco-2 (WT Ras) / IC50 SW-480 (Ras activated)
Method: as §3
as §1, with “Normal” for “Human tumor cells were cultured using standard methods in RPMI-1640 growth medium supplemented with 5% fetal bovine serum (FBS). Normal”
The growth inhibitory activity of the compounds was tested using the CellTiter-Glo assay. Cells were seeded in 384-well plates and allowed to attach, then ten-fold serial dilutions of compounds were tested. Each concentration was tested in at least 3 separate samples per cell line.
as §4

Caco-2 cells = assay: Cell growth inhibition (CellTiter-Glo), Caco-2 colorectal cells with wild-type Ras; conditions: Homo sapiens, Caco-2; growth inhibition, 384-well plates, Table 3; read-out: Caco-2 (WT Ras) IC50
[2] = growth inhibition, colon cancer cells with wild-type Ras, Table 2, read-out: HT-29 (WT Ras) IC50

| SMILES | IC50 (A549 lung cancer cells) | IC50 (HT-29 colon cancer cells; [2]) | IC50 (SW-480 cells) | IC50 (Caco-2 cells) | IC50 (HT-29 colon cancer cells; known Ras pathway inhibitors, 384-well plates, Table 4, read-out: HT-29 IC50) | HT-29/HCT-116 selectivity values [1] | Selectivity HT-29/A549 (A549 lung cancer cells) | Selectivity Caco-2/SW-480 (SW-480 cells) |
| --- | --- | --- | --- | --- | --- | --- | --- | --- |
| COc1cc(/C=C2/C(C)=C(CC(=O)NCc3ccco3)c3cc(F)ccc32)cc(OC)c1OC=O [Compound 002, (Z)-2-(5-fluoro-1-(4-formoxy-3,5-dimethoxybenzylidene)-2-methyl-1H-inden-3-yl)-N-(furan-2-ylmethyl)acetamide] |  |  |  |  |  | 112 |  |  |
| COc1ccc2c(c1)C(CC(=O)NCc1ccco1)=C(C)/C2=C/c1cc(Cl)c(O)c(OC)c1 [Compound 014, (Z)-2-(1-(3-chloro-4-hydroxy-5-methoxybenzylidene)-5-methoxy-2-methyl-1H-inden-3-yl)-N-(furan-2-ylmethyl)acetamide] | 110 nM | 500 nM |  |  |  |  | 5 |  |
| COc1cc(/C=C2/C(C)=C(CC(=O)NCc3cccn3C)c3cc(F)ccc32)cc(OC)c1O [Compound 019, (Z)-2-(5-fluoro-1-(4-hydroxy-3,5-dimethoxybenzylidene)-2-methyl-1H-inden-3-yl)-N-((1-methyl-1H-pyrrol-2-yl)methyl)acetamide] |  |  |  |  |  | 188 |  |  |
| COc1cc(/C=C2/C(C)=C(CC(=O)Nc3ccccc3)c3cc(F)ccc32)cc(OC)c1O [Compound 035, (Z)-2-(5-fluoro-1-(4-hydroxy-3,5-dimethoxybenzylidene)-2-methyl-1H-inden-3-yl)-N-phenylacetamide] |  |  |  |  |  | 31 |  |  |
| COc1ccc2c(c1)C(CC(=O)NCc1ccc[nH]1)=C(C)/C2=C/c1cc(OC)c(O)c(OC)c1 [Compound 022, (Z)—N-((1H-pyrrol-2-yl)methyl)-2-(1-(4-hydroxy-3,5-dimethoxybenzylidene)-5-methoxy-2-methyl-1H-inden-3-yl)acetamide] |  |  |  |  |  | 117 |  |  |
| COc1cc(/C=C2/C(C)=C(CC(=O)NCc3ccccc3)c3cc(F)ccc32)cc(OC)c1O [Compound 015, (Z)—N-benzyl-2-(5-fluoro-1-(4-hydroxy-3,5-dimethoxybenzylidene)-2-methyl-1H-inden-3-yl)acetamide] |  |  |  |  |  | 80 |  |  |
| COc1cc(/C=C2/C(C)=C(CC(=O)NCc3ccco3)c3cc(F)ccc32)cc(OC)c1OS(C)(=O)=O [Compound 029, (Z)-2-(5-fluoro-1-(4-mesyloxy-3,5-dimethoxybenzylidene)-2-methyl-1H-inden-3-yl)-N-(furan-2-ylmethyl)acetamide] |  |  |  |  |  | 35 |  |  |
| COc1ccc2c(c1)C(CC(=O)Nc1cccnc1)=C(C)/C2=C/c1cc(OC)c(O)c(OC)c1 [Compound 004, (Z)-2-(1-(4-hydroxy-3,5-dimethoxybenzylidene)-5-methoxy-2-methyl-1H-inden-3-yl)-N-(pyridin-3-yl)acetamide] | 79 nM | 916 nM | 877 nM | 1600 nM |  |  | 12 | 2 |
| OCCn1cc(-c2ccc3c(c2)CC/C3=N\O)c(-c2ccncc2)n1 [GDC0879, reference compound] |  |  |  |  | 23600 nM |  |  |  |

The next lines start with results.

| IC50 (A549 lung cancer cells) | IC50 (HT-29 colon cancer cells; [2]) | IC50 (SW-480 cells) | IC50 (Caco-2 cells) | IC50 (HT-29 colon cancer cells; known Ras pathway inhibitors, 384-well plates, Table 4, read-out: HT-29 IC50) | SMILES | HT-29/HCT-116 selectivity values [1] | Selectivity HT-29/A549 (A549 lung cancer cells) | Selectivity Caco-2/SW-480 (SW-480 cells) |
| --- | --- | --- | --- | --- | --- | --- | --- | --- |
| 3650 nM | 4120 nM |  |  |  | COc1ccc2c(c1)C(CC(=O)NCCN(C)C)=C(C)/C2=C/c1cc(OC)c(O)c(OC)c1 [Compound 003, (Z)—N-(2-(dimethylamino)ethyl)-2-(1-(4-hydroxy-3,5-dimethoxybenzylidene)-5-methoxy-2-methyl-1H-inden-3-yl)acetamide] |  | 1 |  |
| 716 nM | 6280 nM | 435 nM | 1100 nM |  | COc1ccc2c(c1)C(CC(=O)NCc1ccco1)=C(C)/C2=C/c1cc(C)c(O)c(C)c1 [Compound 001, (Z)—N-(furan-2-ylmethyl)-2-(1-(4-hydroxy-3,5-dimethylbenzylidene)-5-methoxy-2-methyl-1H-inden-3-yl)acetamide] |  | 9 | 3 |
| 353 nM | 4830 nM | 223 nM | 2610 nM |  | COc1ccc2c(c1)C(CC(=O)NCc1cccnc1)=C(C)/C2=C/c1cc(OC)c(O)c(OC)c1 [Compound 009, (Z)-2-(1-(4-hydroxy-3,5-dimethoxybenzylidene)-5-methoxy-2-methyl-1H-inden-3-yl)-N-(pyridin-3-ylmethyl)acetamide] |  | 14 | 12 |
| 5940 nM | 7190 nM |  |  |  | COc1ccc2c(c1)C(CC(=O)NC1CCN(C)C1)=C(C)/C2=C/c1cc(OC)c(O)c(OC)c1 (stereo not shown) [Compound 005, (Z)-2-(1-(4-hydroxy-3,5-dimethoxybenzylidene)-5-methoxy-2-methyl-1H-inden-3-yl)-N-(1-methylpyrrolidin-3-yl)acetamide] |  | 1 |  |
| 300 nM | 730 nM |  |  |  | COc1ccc2c(c1)C(CC(=O)NCc1ccco1)=C(C)/C2=C/c1cc(Br)c(O)c(OC)c1 [Compound 013, (Z)-2-(1-(3-bromo-4-hydroxy-5-methoxybenzylidene)-5-methoxy-2-methyl-1H-inden-3-yl)-N-(furan-2-ylmethyl)acetamide] |  | 2 |  |
| 170 nM | 900 nM |  |  |  | COc1ccc2c(c1)C(CC(=O)NCc1ccco1)=C(C)/C2=C/c1ccc(O)c(OC)c1 [Compound 012, (Z)—N-(furan-2-ylmethyl)-2-(1-(4-hydroxy-3-methoxybenzylidene)-5-methoxy-2-methyl-1H-inden-3-yl)acetamide] |  | 5 |  |
| 167 nM | 1540 nM | 139 nM | 1330 nM |  | COc1cc2c(cc1OC)/C(=C\c1cc(OC)c(O)c(OC)c1)C(C)=C2CC(=O)NCc1ccco1 [Compound 008, (Z)—N-(furan-2-ylmethyl)-2-(1-(4-hydroxy-3,5-dimethoxybenzylidene)-5,6-dimethoxy-2-methyl-1H-inden-3-yl)acetamide] |  | 9 | 10 |
